Experimental data from article PMC4965013, “Open Source Drug Discovery with the Malaria Box Compound Collection for Neglected Diseases and Beyond” (PLoS Pathogens, 2016).

Experiments:
[1] = system: P. falciparum 3D7 trophozoites; assay: Metabolomic fingerprint profiling LC-MS; type: cell-based, Plasmodium falciparum; parameters: UDP-D-glucose / ADP-D-glucose: unit not given here
[2] = system: P. falciparum; assay: EC50 listed in S2 Table Metabolomics (used to set the concentration tested); type: cell-based; conditions: Plasmodium falciparum; EC50 used for Factor_XEC50 in metabolomics; read-out: EC50_nM
[3] = metabolite level change after treatment

`CCCc1cc(O)c2c3c(c(=O)oc2c1)CN(C)CC3` [MMV665841] gave an Acetyllysine ([1]; S2 Table Metabolomics, metabolite Acetyllysine) of -2.612, a N-acetyl-L-ornithine ([1]; S2 Table Metabolomics, metabolite N-acetyl-L-ornithine) of -1.949 and a N-carbamoyl-L-aspartate ([1]; S2 Table Metabolomics, metabolite N-carbamoyl-L-aspartate) of -0.955. It also gave an NADPH ([1]; S2 Table Metabolomics, metabolite NADPH) of 0.07097, a dAMP ([1]; S2 Table Metabolomics, metabolite dAMP) of -0.5338 and a dCMP ([1]; S2 Table Metabolomics, metabolite dCMP) of 0.378. For the same compound, the dTDP ([1]; S2 Table Metabolomics, metabolite dTDP) was -0.09857, the dTMP ([1]; S2 Table Metabolomics, metabolite dTMP) was -0.08494 and the dTTP ([1]; S2 Table Metabolomics, metabolite dTTP) was 0.3392. For the same compound, the dihydroorotate ([1]; S2 Table Metabolomics, metabolite dihydroorotate) was -0.7381, the orotate ([1]; S2 Table Metabolomics, metabolite orotate) was -0.6991 and the DLH ([1]; S2 Table Metabolomics, peptide DLH) was -2.223. It also gave a DLS/SDL/SID ([1]; S2 Table Metabolomics, peptide DLS/SDL/SID) of -2.0523, a PD ([1]; S2 Table Metabolomics, peptide PD) of -2.506 and a PEE ([1]; S2 Table Metabolomics, peptide PEE) of -2.465. The PVNF ([1]; S2 Table Metabolomics, peptide PVNF) was -2.267, the 3-phosphoglycerate ([1]; metabolite 3-phosphoglycerate, S2 Table Metabolomics) was 0.2411 and the ADP-D-glucose ([1]; metabolite ADP-D-glucose, S2 Table Metabolomics) was 0.03562. For the same compound, the ATP ([1]; metabolite ATP, S2 Table Metabolomics) was 0.3706, the CDP ([1]; metabolite CDP, S2 Table Metabolomics, change in metabolite level after compound treatment) was -0.1497 and the D-sedoheptulose-1/7-phosphate ([1]; metabolite D-sedoheptulose-1/7-phosphate, S2 Table Metabolomics, change in metabolite level after compound treatment) was -0.0969. The FAD ([1]; metabolite FAD, S2 Table Metabolomics) was 0.4757, the GMP ([1]; metabolite GMP, S2 Table Metabolomics, change in metabolite level after compound treatment) was 0.7431 and the “NAD+” value ([1]; metabolite NAD+, S2 Table Metabolomics) was 0.1538. The “NADP+” value ([1]; metabolite NADP+, S2 Table Metabolomics) was 0.3743, the “Octoluse Bisphosphate” value ([1]; metabolite Octoluse Bisphosphate, S2 Table Metabolomics, change in metabolite level after compound treatment) was -0.2246 and the Pyroglutamic acid ([1]; metabolite Pyroglutamic acid, S2 Table Metabolomics) was 0.8685. It also gave a UDP-D-glucose ([1]; metabolite UDP-D-glucose, S2 Table Metabolomics) of 0.1781, a UDP-D-glucuronate ([1]; metabolite UDP-D-glucuronate, S2 Table Metabolomics) of 0.2234 and a UDP-N-acetyl-glucosamine ([1]; metabolite UDP-N-acetyl-glucosamine, S2 Table Metabolomics) of 0.1163. The UDP ([1]; metabolite UDP, S2 Table Metabolomics, change in metabolite level after compound treatment) was -0.165, the UMP ([1]; metabolite UMP, S2 Table Metabolomics, change in metabolite level after compound treatment) was 0.01879 and the UTP ([1]; metabolite UTP, S2 Table Metabolomics, change in metabolite level after compound treatment) was 0.1488. The a-ketoglutarate ([1]; metabolite a-ketoglutarate, S2 Table Metabolomics) was -1.017, the citrate/isocitrate ([1]; metabolite citrate/isocitrate, S2 Table Metabolomics, change in metabolite level after compound treatment) was -0.03416 and the cytidine ([1]; metabolite cytidine, S2 Table Metabolomics) was 0.6575. The dATP ([1]; metabolite dATP, S2 Table Metabolomics) was -0.1225, the dGMP/AMP ([1]; metabolite dGMP/AMP, S2 Table Metabolomics, change in metabolite level after compound treatment) was -0.03336 and the fumarate ([1]; metabolite fumarate, S2 Table Metabolomics, change in metabolite level after compound treatment) was -0.991. For the same compound, the glucose-1/6-phosphate ([1]; metabolite glucose-1/6-phosphate, S2 Table Metabolomics, change in metabolite level after compound treatment) was 0.02998, the glycerate ([1]; metabolite glycerate, S2 Table Metabolomics, change in metabolite level after compound treatment) was -0.7467 and the guanine ([1]; metabolite guanine, S2 Table Metabolomics, change in metabolite level after compound treatment) was -0.195. It also gave a guanosine ([1]; metabolite guanosine, S2 Table Metabolomics, change in metabolite level after compound treatment) of -0.4835, a hypoxanthine ([1]; metabolite hypoxanthine, S2 Table Metabolomics) of 0.1991 and an indole ([1]; metabolite indole, S2 Table Metabolomics) of -0.2191. For the same compound, the inosine ([1]; metabolite inosine, S2 Table Metabolomics, change in metabolite level after compound treatment) was 0.006205, the 2_3-Diphosphoglyceric acid [1, 3] was 0.1243 and the 4-phosphopantothenate [1, 3] was -0.4271. It also gave a 6-phospho-D-gluconate [1, 3] of -0.03292, an FMN [1, 3] of 0.1348 and an IMP [1, 3] of -0.4143. It also gave a Pyrophosphate [1, 3] of 0.01603, a Sedoheptoluse bisphosphate [1, 3] of -0.2052 and a cyclic-AMP [1, 3] of -0.23. The glutathione disulfide [1, 3] was -0.3848, the lactate [1, 3] was -0.3481 and the myo-inositol [1, 3] was -0.7715. The nicotinate ([1]; metabolite nicotinate, S2 Table Metabolomics) was -0.06082, the ornithine ([1]; metabolite ornithine, S2 Table Metabolomics) was -0.04541 and the phosphoenolpyruvate ([1]; metabolite phosphoenolpyruvate, S2 Table Metabolomics) was 0.2681. For the same compound, the pyruvate ([1]; metabolite pyruvate, S2 Table Metabolomics, change in metabolite level after compound treatment) was -0.1725, the ribose-phosphate ([1]; metabolite ribose-phosphate, S2 Table Metabolomics) was -0.5158 and the sarcosine/alanine ([1]; metabolite sarcosine/alanine, S2 Table Metabolomics, change in metabolite level after compound treatment) was -1.291. The sn-glycerol-3-phosphate ([1]; metabolite sn-glycerol-3-phosphate, S2 Table Metabolomics) was -0.1021, the succinate/methylmalonic acid ([1]; metabolite succinate/methylmalonic acid, S2 Table Metabolomics, change in metabolite level after compound treatment) was -0.1585 and the uridine ([1]; metabolite uridine, S2 Table Metabolomics, change in metabolite level after compound treatment) was -0.2002. For the same compound, the xanthosine ([1]; metabolite xanthosine, S2 Table Metabolomics, change in metabolite level after compound treatment) was -0.28 and the EC50 [2] was 146 nM.
